# In patent publication US10676468B2, “N-(3-heteroarylaryl)-4-arylarylcarboxamides and analogs as hedgehog pathway inhibitors and use thereof” (IMPACT Therapeutics, Inc., priority 2012, dated 2020):
# Tests used:
# Assay type in all cases: cell-based, mouse
# [1] = test system: Hedgehog Signaling Pathway; experiment: SAG-induced differentiation of C3H10T1/2 cells into osteoblastic cells, intracellular alkaline phosphatase activity; conditions: Mus musculus, C3H 10T1/2, 120 h, 1 μM SAG, 5 days, alkaline phosphatase activity (OD405), read-out: IC50 values of compounds that inhibit Hh pathway
# Summary of the method: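 Mouse C3H10T1/2 cells were induced with SAG and exposed to compound (10 μM to 1 nM) for 5 days at 37 °C. Cells were lysed in 0.2% Triton, and alkaline phosphatase activity was read as OD405 over 30 min at 37 °C in pH 9.8 substrate buffer. IC50 came from a non-linear fit of background-subtracted OD405 against log concentration.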
# [2] = test system: Hedgehog Signaling Pathway; experiment: SHH-induced differentiation of C3H10T1/2 cells into osteoblastic cells, intracellular alkaline phosphatase activity; conditions: 10 nM SHH-N, 5 days, alkaline phosphatase activity (OD405), read-out: IC50 values of compounds that inhibit Hh pathway
# Summary of the method: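 Hedgehog pathway inhibition was taken as loss of SHH-driven osteoblastic differentiation. Test compound (10 nM–10 μM) plus SHH-N (10 nM) was applied to C3H10T1/2 cells for 5 days, then lysate phosphatase turnover was measured as the 30-min OD405 change at 37 °C. IC50 was fitted from activity versus log dose.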
# [3] = test system: Hedgehog Signaling Pathway; experiment: Gli-Luc reporter gene cell assay in C3H10T1/2/Gli-Luc cells stimulated with Shh; conditions: Mus musculus, C3H 10T1/2, 24 h, 30 nM Shh, luciferase activity (RLU), read-out: IC50 values of compounds that inhibit Hh pathway
# Summary of the method: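 IC50 from nonlinear fit of luciferase RLU versus log compound concentration. Stably transfected C3H10T1/2/Gli-Luc cells received a 7-point compound series alongside Shh (30 nM in the added medium) for 24 h at 37 °C in DMEM/10% FBS, then were lysed for luciferase readout.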
# [4] = Mus musculus, C3H 10T1/2, 120 h
IC50 [1] [nM],"IC50 [2, 4] [nM]",IC50 [3] [nM],IC50 [2] [nM],Structure (SMILES)
32,0.59,1.7,–,"Cc1cc(N2C[C@@H](C)N(C)[C@@H](C)C2)ccc1C(=O)Nc1ccc(Cl)c(-c2nc3ccc(Cl)cc3[nH]2)c1 [Example 97, N-(3-(6-chloro-1H-benzo[d]imidazol-2-yl)-4-chlorophenyl)-2-methyl-4-((3S,5R)-3,4,5-trimethylpiperazin-1-yl)benzamide]"
24,1.4,0.96,–,"Cc1cc(N2C[C@@H](C)N(C)[C@@H](C)C2)ccc1C(=O)Nc1ccc(Cl)c(-c2nc3ccc(F)cc3[nH]2)c1 [Example 98, N-(3-(6-fluoro-1H-benzo[d]imidazol-2-yl)-4-chlorophenyl)-2-methyl-4-((3S,5R)-3,4,5-trimethylpiperazin-1-yl)benzamide]"
81,–,1.6,2.6,"C[C@@H]1CN(c2ccc(C(=O)Nc3ccc(Cl)c(-c4nc5ccc(F)cc5[nH]4)c3)c(Cl)c2)C[C@H](C)N1C [Example 99, N-(3-(6-fluoro-1H-benzo[d]imidazol-2-yl)-4-chlorophenyl)-2-chloro-4-((3S,5R)-3,4,5-trimethylpiperazin-1-yl)benzamide]"
33,2.3,0.58,–,"CCN1[C@H](C)CN(c2ccc(C(=O)Nc3ccc(Cl)c(-c4nc5ccccc5[nH]4)c3)c(C)c2)C[C@@H]1C [Example 100, N-(3-(1H-benzo[d]imidazol-2-yl)-4-chlorophenyl)-2-methyl-4-((3S,5R)-4-ethyl-3,5-dimethylpiperazin-1-yl)benzamide]"
46,0.64,0.67,–,"Cc1cc(N2C[C@@H](C)N(C(C)C)[C@@H](C)C2)ccc1C(=O)Nc1ccc(Cl)c(-c2nc3ccccc3[nH]2)c1 [Example 101, N-(3-(1H-benzo[d]imidazol-2-yl)-4-chlorophenyl)-2-methyl-4-((3S,5R)-4-isopropyl-3,5-dimethylpiperazin-1-yl)benzamide]"
449,40,9.4,–,"CN1CCN(c2ccc(C(=O)Nc3ccc(Cl)c(-c4nc5ccccc5[nH]4)c3)cn2)CC1 [Example 103, N-(3-(1H-benzo[d]imidazol-2-yl)-4-chlorophenyl)-6-(4-methylpiperazin-1-yl)nicotinamide]"
58,0.61,0.94,–,"C[C@@H]1CN(c2ccc(C(=O)Nc3ccc(Cl)c(-c4nc5ccccc5[nH]4)c3)cn2)C[C@H](C)N1C [Example 104, N-(3-(1H-benzo[d]imidazol-2-yl)-4-chlorophenyl)-6-((3S,5R)-3,4,5-trimethylpiperazin-1-yl)nicotinamide]"
58,2.2,1.1,–,"CCN1[C@H](C)CN(c2ccc(C(=O)Nc3ccc(Cl)c(-c4nc5ccccc5[nH]4)c3)cn2)C[C@@H]1C [Example 105, N-(3-(1H-benzo[d]imidazol-2-yl)-4-chlorophenyl)-6-((3S,5R)-4-ethyl-3,5-dimethylpiperazin-1-yl)nicotinamide]"
47,2.3,0.75,–,"Cc1cc(N2C[C@@H](C)N(C)[C@@H](C)C2)ncc1C(=O)Nc1ccc(Cl)c(-c2nc3ccccc3[nH]2)c1 [Example 107, N-(3-(1H-benzo[d]imidazol-2-yl)-4-chlorophenyl)-4-methyl-6-((3S,5R)-3,4,5-trimethylpiperazin-1-yl)nicotinamide]"
96,6.4,3.8,–,"Cc1cc(N2C[C@@H](C)N[C@@H](C)C2)ccc1C(=O)Nc1ccc(Cl)c(-c2nc3ccccc3[nH]2)c1 [Example 109, N-(3-(1H-benzo[d]imidazol-2-yl)-4-chlorophenyl)-2-methyl-4-((3S,5R)-3,5-dimethylpiperazin-1-yl)benzamide]"
28,0.66,0.57,–,"C[C@@H]1CN(c2ccc(C(=O)Nc3ccc(Cl)c(-c4nc5ccccc5n4C)c3)c(Cl)c2)C[C@H](C)N1C [Example 110, N-(3-(1-methyl-1H-benzo[d]imidazol-2-yl)-4-chlorophenyl)-2-chloro-4-((3S,5R)-3,4,5-trimethylpiperazin-1-yl)benzamide]"
68,0.94,2.2,–,"Cc1ccc2nc(-c3cc(NC(=O)c4ccc(N5C[C@@H](C)N(C)[C@@H](C)C5)cc4Cl)ccc3Cl)[nH]c2c1 [Example 111, N-(3-(6-methyl-1H-benzo[d]imidazol-2-yl)-4-chlorophenyl)-2-chloro-4-((3S,5R)-3,4,5-trimethylpiperazin-1-yl)benzamide]"
83,8.6,5.5,–,"Cc1ccc2nc(-c3cc(NC(=O)c4ccc(N5C[C@@H](C)N(C)[C@@H](C)C5)cc4C)ccc3Cl)[nH]c2c1 [Example 112, N-(3-(6-methyl-1H-benzo[d]imidazol-2-yl)-4-chlorophenyl)-2-methyl-4-((3S,5R)-3,4,5-trimethylpiperazin-1-yl)benzamide]"
1040,> 10000,27,–,"Cc1ccc(NC(=O)c2ccc(N3C[C@@H](C)N(C)[C@@H](C)C3)cc2Cl)cc1-c1nc2ccc(Cl)cc2[nH]1 [Example 113, N-(3-(6-chloro-1H-benzo[d]imidazol-2-yl)-4-methylphenyl)-2-chloro-4-((3S,5R)-3,4,5-trimethylpiperazin-1-yl)benzamide]"
77,9,0.85,–,"CCN1[C@H](C)CN(c2ccc(C(=O)Nc3ccc(Cl)c(-c4nc5ccc(F)cc5[nH]4)c3)c(Cl)c2)C[C@@H]1C [Example 114, N-(3-(6-fluoro-1H-benzo[d]imidazol-2-yl)-4-chlorophenyl)-2-chloro-4-((3S,5R)-4-ethyl-3,5-dimethylpiperazin-1-yl)benzamide]"
145,31,3.4,–,"Cc1ccc(NC(=O)c2ccc(N3C[C@@H](C)N(C)[C@@H](C)C3)cc2Cl)cc1-c1nc2ccc(F)cc2[nH]1 [Example 115, N-(3-(6-fluoro-1H-benzo[d]imidazol-2-yl)-4-methylphenyl)-2-chloro-4-((3S,5R)-3,4,5-trimethylpiperazin-1-yl)benzamide]"
68,2.1,1.4,–,"Cc1nc(N2C[C@@H](C)N(C)[C@@H](C)C2)ccc1C(=O)Nc1ccc(Cl)c(-c2nc3ccccc3[nH]2)c1 [Example 116, N-(3-(1H-benzo[d]imidazol-2-yl)-4-chlorophenyl)-2-methyl-6-((3S,5R)-3,4,5-trimethylpiperazin-1-yl)nicotinamide]"
27,4.6,1.2,–,"C[C@@H]1CN(c2ccc(C(=O)Nc3ccc(Cl)c(-c4nc5ccccc5[nH]4)c3)c(Cl)n2)C[C@H](C)N1C [Example 117, N-(3-(1H-benzo[d]imidazol-2-yl)-4-chlorophenyl)-2-chloro-6-((3S,5R)-3,4,5-trimethylpiperazin-1-yl)nicotinamide]"
260,13,5.1,–,"C[C@@H]1CN(c2ccc(C(=O)Nc3ccc(Cl)c(-c4nc5ccccc5[nH]4)c3)cc2)C[C@H](C)N1C [Example 118, N-(3-(1H-benzo[d]imidazol-2-yl)-4-chlorophenyl)-4-((3S,5R)-3,4,5-trimethylpiperazin-1-yl)benzamide]"
39,0.76,0.45,–,"C[C@@H]1CN(c2ccc(C(=O)Nc3ccc(Cl)c(-c4nc5ccccc5[nH]4)c3)c(C(F)(F)F)c2)C[C@H](C)N1C [Example 119, N-(3-(1H-benzo[d]imidazol-2-yl)-4-chlorophenyl)-2-(trifluoromethyl)-4-((3S,5R)-3,4,5-trimethylpiperazin-1-yl)benzamide]"
57,7.4,1.7,–,"C[C@@H]1CN(c2ccc(C(=O)Nc3ccc(Cl)c(-c4nc5ccccc5[nH]4)c3)cc2Cl)C[C@H](C)N1C [Example 120, N-(3-(1H-benzo[d]imidazol-2-yl)-4-chlorophenyl)-3-chloro-4-((3S,5R)-3,4,5-trimethylpiperazin-1-yl)benzamide]"
29,23,1.6,–,"Cc1cc(C(=O)Nc2ccc(Cl)c(-c3nc4ccccc4[nH]3)c2)ccc1N1C[C@@H](C)N(C)[C@@H](C)C1 [Example 121, N-(3-(1H-benzo[d]imidazol-2-yl)-4-chlorophenyl)-3-methyl-4-((3S,5R)-3,4,5-trimethylpiperazin-1-yl)benzamide]"
29,0.52,0.39,–,"Cc1c(C(=O)Nc2ccc(Cl)c(-c3nc4ccccc4[nH]3)c2)ccc(N2C[C@@H](C)N(C)[C@@H](C)C2)c1F [Example 122, N-(3-(1H-benzo[d]imidazol-2-yl)-4-chlorophenyl)-2-methyl-3-fluoro-4-((3S,5R)-3,4,5-trimethylpiperazin-1-yl)benzamide]"
53,0.97,0.39,–,"C[C@@H]1CN(c2cc(Cl)c(C(=O)Nc3ccc(Cl)c(-c4nc5ccccc5[nH]4)c3)cc2F)C[C@H](C)N1C [Example 123, N-(3-(1H-benzo[d]imidazol-2-yl)-4-chlorophenyl)-2-chloro-5-fluoro-4-((3S,5R)-3,4,5-trimethylpiperazin-1-yl)benzamide]"
